From patent US20250197407A1 (Jazz Pharmaceuticals Ireland Limited, priority 2022, published 2025)

target: SOS1/KRAS WT (Homo sapiens (Human), UniProt Q07889); test: SOS1/KRAS WT HTRF binding assay (FRET-based protein-protein interaction); conditions: inhibition of His6-SOS1 (aa564-1049, 40 nM) binding to GST-KRAS-WT (aa1-188, 40 nM); at least two independent replicates; read-out: SOS1/KRAS WT HTRF Binding assay pIC50 (converted)
Outline: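 Time-resolved FRET at 665 nm, read 4 hr after adding anti-GST-Eu(K) (4 nM) and anti-6His-XL665 (20 nM), tracked SOS1(aa564-1049)–KRAS WT(aa1-188) association. Both proteins were at 40 nM, pre-incubated 60 min at room temperature with compound. Max/min signals came from 0.05% DMSO and 10 μM reference, with four-parameter logistic IC50.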

Chain of SOS1/KRAS WT (Q07889 564-1049): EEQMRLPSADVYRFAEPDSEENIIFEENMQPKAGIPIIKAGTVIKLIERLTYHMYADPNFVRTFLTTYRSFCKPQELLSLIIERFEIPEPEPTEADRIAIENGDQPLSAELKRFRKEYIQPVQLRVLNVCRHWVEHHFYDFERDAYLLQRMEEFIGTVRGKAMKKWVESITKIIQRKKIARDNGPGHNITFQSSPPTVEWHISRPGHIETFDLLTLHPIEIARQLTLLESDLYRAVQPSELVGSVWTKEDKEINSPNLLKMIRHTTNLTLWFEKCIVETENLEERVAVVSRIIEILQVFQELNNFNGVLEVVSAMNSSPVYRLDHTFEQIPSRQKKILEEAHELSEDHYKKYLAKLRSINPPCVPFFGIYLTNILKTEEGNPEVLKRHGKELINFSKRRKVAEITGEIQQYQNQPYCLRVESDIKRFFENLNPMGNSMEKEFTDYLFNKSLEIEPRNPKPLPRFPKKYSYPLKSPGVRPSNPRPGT

Row | IC50 | SMILES
1 | 14.8 nM | CCOC1(C)C(=O)N(C2CC2)c2cc3c(N[C@H](C)c4cccc(C(F)(F)C(C)(C)O)c4C)nnc(C)c3cc21 (stereo partly drawn) [Compound 166, 1-cyclopropyl-3-ethoxy-3,5-dimethyl-8-[[(1R)-1-[3-(1,1-difluoro-2-hydroxy-2-methyl-propyl)-2-methyl-phenyl]ethyl]amino]pyrrolo[2,3-g]phthalazin-2-one]
2 | 8.91 nM | CCN1C(=O)C(C)(OC)c2cc3c(C)nnc(N[C@H](C)c4cccc(C(F)(F)CO)c4C)c3cc21 (stereo partly drawn) [Compound 168, 1-ethyl-3-methoxy-3,5-dimethyl-8-[[(1R)-1-[3-(1,1-difluoro-2-hydroxy-ethyl)-2-methyl-phenyl]ethyl]amino]pyrrolo[2,3-g]phthalazin-2-one]
3 | 10.2 nM | CCN1C(=O)C(C)(OC)c2cc3c(C)nnc(N[C@H](C)c4cccc(C(F)(F)C(C)(C)O)c4C)c3cc21 (stereo partly drawn) [Compound 169, 1-ethyl-3-methoxy-3,5-dimethyl-8-[[(1R)-1-[3-(1,1-difluoro-2-hydroxy-2-methyl-propyl)-2-methyl-phenyl]ethyl]amino]pyrrolo[2,3-g]phthalazin-2-one]
4 | 9.12 nM | CCN1C(=O)C(C)(OC)c2cc3c(C)nnc(N[C@H](C)c4cccc(C(F)(F)C(C)(C)O)c4F)c3cc21 (stereo partly drawn) [Compound 170, 1-ethyl-3-methoxy-3,5-dimethyl-8-[[(1R)-1-[3-(1,1-difluoro-2-hydroxy-2-methyl-propyl)-2-fluoro-phenyl]ethyl]amino]pyrrolo[2,3-g]phthalazin-2-one]
5 | 15.8 nM | COC1(C)C(=O)N(C)c2cc3c(C)nnc(N[C@H](C)c4cccc(C(F)(F)C(C)(C)O)c4C)c3cc21 (stereo partly drawn) [Compound 174, 3-methoxy-1,3,8-trimethyl-5-[[(1R)-1-[3-(1,1-difluoro-2-hydroxy-2-methyl-propyl)-2-methyl-phenyl]ethyl]amino]pyrrolo[3,2-g]phthalazin-2-one]
6 | 14.5 nM | COC1(C)C(=O)N(C)c2cc3c(N[C@H](C)c4cc(F)cc(C(F)(F)C(C)(C)O)c4)nnc(C)c3cc21 (stereo partly drawn) [Compound 175, 3-methoxy-1,3,5-trimethyl-8-[[(1R)-1-[3-(1,1-difluoro-2-hydroxy-2-methyl-propyl)-5-fluoro-phenyl]ethyl]amino]pyrrolo[2,3-g]phthalazin-2-one]
7 | 10.7 nM | COC1(C)C(=O)N(C)c2cc3c(C)nnc(N[C@H](C)c4cccc(C(F)(F)CO)c4F)c3cc21 (stereo partly drawn) [Compound 176, 3-methoxy-1,3,8-trimethyl-5-[[(1R)-1-[3-(1,1-difluoro-2-hydroxy-ethyl)-2-fluoro-phenyl]ethyl]amino]pyrrolo[3,2-g]phthalazin-2-one]
8 | 9.77 nM | COC1(C)C(=O)N(C)c2cc3c(C)nnc(N[C@H](C)c4cccc(C(F)(F)CO)c4C)c3cc21 (stereo partly drawn) [Compound 177, 3-methoxy-1,3,8-trimethyl-5-[[(1R)-1-[3-(1,1-difluoro-2-hydroxy-ethyl)-2-methyl-phenyl]ethyl]amino]pyrrolo[3,2-g]phthalazin-2-one]
9 | 10.2 nM | COC1(C)C(=O)N(C)c2cc3c(C)nnc(N[C@H](C)c4cccc(C(F)(F)C(C)(C)O)c4F)c3cc21 (stereo partly drawn) [Compound 179, 3-methoxy-1,3,8-trimethyl-5-[[(1R)-1-[3-(1,1-difluoro-2-hydroxy-2-methyl-propyl)-2-fluoro-phenyl]ethyl]amino]pyrrolo[3,2-g]phthalazin-2-one]
10 | 12 nM | COC1(C)C(=O)N(C)c2cc3c(C)nnc(N[C@H](C)c4cccc(C(F)(F)C(C)(C)O)c4)c3cc21 (stereo partly drawn) [Compound 180, 3-methoxy-1,3,8-trimethyl-5-[[(1R)-1-[3-(1,1-difluoro-2-hydroxy-2-methyl-propyl)phenyl]ethyl]amino]pyrrolo [3,2-g]phthalazin-2-one]
11 | 13.2 nM | COC1(C)C(=O)N(C)c2cc3c(N[C@H](C)c4cc(F)cc(C(F)(F)C(C)(C)O)c4C)nnc(C)c3cc21 (stereo partly drawn) [Compound 181, 3-methoxy-1,3,5-trimethyl-8-[[(1R)-1-[3-(1,1-difluoro-2-hydroxy-2-methyl-propyl)-5-fluoro-2-methyl-phenyl]ethyl]amino]pyrrolo[2,3-g]phthalazin-2-one]
12 | 9.77 nM | COC1(C)C(=O)N(C)c2cc3c(N[C@H](C)c4cc(C)cc(C(F)(F)CO)c4C)nnc(C)c3cc21 (stereo partly drawn) [Compound 182, 3-methoxy-1,3,5-trimethyl-8-[[(1R)-1-[3-(1,1-difluoro-2-hydroxy-ethyl)-2,5-dimethyl-phenyl]ethyl]amino]pyrrolo[2,3-g]phthalazin-2-one]
13 | 24.5 nM | CCOC1(C)C(=O)N(C)c2cc3c(C)nnc(N[C@H](C)c4cccc(C(F)(F)C(C)(C)O)c4C)c3cc21 (stereo partly drawn) [Compound 185, 3-ethoxy-1,3,8-trimethyl-5-[[(1R)-1-[3-(1,1-difluoro-2-hydroxy-2-methyl-propyl)-2-methyl-phenyl]ethyl]amino]pyrrolo[3,2-g]phthalazin-2-one]
14 | 8.32 nM | Cc1c([C@@H](C)Nc2nnc(C)c3cc4c(cc23)N(C)C(=O)C42CCCC2)cccc1C(F)(F)C(C)(C)O [Compound 186, 1′,5′-dimethyl-8′-[[(1R)-1-[3-(1,1-difluoro-2-hydroxy-2-methyl-propyl)-2-methyl-phenyl]ethyl]amino]spiro [cyclopentane-1,3′-pyrrolo[2,3-g]phthalazine]-2′-one]

More lines, now with the values behind:

Row | SMILES | IC50
15 | CCOC1(C)C(=O)N(C2CC2)c2cc3c(N[C@H](C)c4cccc(C(F)(F)CO)c4F)nnc(C)c3cc21 (stereo partly drawn) [Compound 164, 1-cyclopropyl-3-ethoxy-3,5-dimethyl-8-[[(1R)-1-[3-(1,1-difluoro-2-hydroxy-ethyl)-2-fluoro-phenyl]ethyl]amino]pyrrolo[2,3-g]phthalazin-2-one] | 11.5 nM
16 | CCOC1(C)C(=O)N(C2CC2)c2cc3c(N[C@H](C)c4cccc(C(F)(F)C(C)(C)O)c4)nnc(C)c3cc21 (stereo partly drawn) [Compound 165, 1-cyclopropyl-3-ethoxy-3,5-dimethyl-8-[[(1R)-1-[3-(1,1-difluoro-2-hydroxy-2-methyl-propyl)phenyl]ethyl]amino]pyrrolo [2,3-g]phthalazin-2-one] | 10 nM
17 | CCOC1(C)C(=O)N(C2CC2)c2cc3c(N[C@H](C)c4cccc(C(F)(F)CO)c4C)nnc(C)c3cc21 (stereo partly drawn) [Compound 167, 1-cyclopropyl-3-ethoxy-3,5-dimethyl-8-[[(1R)-1-[3-(1,1-difluoro-2-hydroxy-ethyl)-2-methyl-phenyl]ethyl]amino]pyrrolo[2,3-g]phthalazin-2-one] | 12.6 nM
18 | CCN1C(=O)C(C)(OC)c2cc3c(C)nnc(N[C@H](C)c4cccc(C(F)(F)CO)c4)c3cc21 (stereo partly drawn) [Compound 171, 1-ethyl-3-methoxy-3,5-dimethyl-8-[[(1R)-1-[3-(1,1-difluoro-2-hydroxy-ethyl)phenyl]ethyl]amino]pyrrolo [2,3-g]phthalazin-2-one] | 9.77 nM
19 | CCN1C(=O)C(C)(OC)c2cc3c(C)nnc(N[C@H](C)c4cccc(C(F)(F)CO)c4F)c3cc21 (stereo partly drawn) [Compound 172, 1-ethyl-3-methoxy-3,5-dimethyl-8-[[(1R)-1-[3-(1,1-difluoro-2-hydroxy-ethyl)-2-fluoro-phenyl]ethyl]amino]pyrrolo[2,3-g]phthalazin-2-one] | 9.77 nM
20 | CCN1C(=O)C(C)(OC)c2cc3c(C)nnc(N[C@H](C)c4cccc(C(F)(F)C(C)(C)O)c4)c3cc21 (stereo partly drawn) [Compound 173, 1-ethyl-3-methoxy-3,5-dimethyl-8-[[(1R)-1-[3-(1,1-difluoro-2-hydroxy-2-methyl-propyl)phenyl]ethyl]amino]pyrrolo [2,3-g]phthalazin-2-one] | 11.7 nM
21 | COC1(C)C(=O)N(C)c2cc3c(C)nnc(N[C@H](C)c4cccc(C(F)(F)CO)c4)c3cc21 (stereo partly drawn) [Compound 178, 3-methoxy-1,3,8-trimethyl-5-[[(1R)-1-[3-(1,1-difluoro-2-hydroxy-ethyl)phenyl]ethyl]amino]pyrrolo [3,2-g]phthalazin-2-one] | 16.6 nM
22 | COC1(C)C(=O)N(C)c2cc3c(N[C@H](C)c4cc(F)cc(C(F)(F)CO)c4C)nnc(C)c3cc21 (stereo partly drawn) [Compound 183, 3-methoxy-1,3,5-trimethyl-8-[[(1R)-1-[3-(1,1-difluoro-2-hydroxy-ethyl)-5-fluoro-2-methyl-phenyl]ethyl]amino]pyrrolo[2,3-g]phthalazin-2-one] | 11 nM
23 | CCOC1(C)C(=O)N(C)c2cc3c(C)nnc(N[C@H](C)c4cccc(C(F)(F)C(C)(C)O)c4)c3cc21 (stereo partly drawn) [Compound 184, 3-ethoxy-1,3,8-trimethyl-5-[[(1R)-1-[3-(1,1-difluoro-2-hydroxy-2-methyl-propyl)phenyl]ethyl]amino]pyrrolo [3,2-g]phthalazin-2-one] | 14.8 nM
24 | Cc1nnc(N[C@H](C)c2cc(F)cc(C(F)(F)CO)c2)c2cc3c(cc12)C1(CCCC1)C(=O)N3C [Compound 187, 1′,5′-dimethyl-8′-[[(1R)-1-[3-(1,1-difluoro-2-hydroxy-ethyl)-5-fluoro-phenyl]ethyl]amino]spiro [cyclopentane-1,3′-pyrrolo[2,3-g]phthalazine]-2′-one] | 21.9 nM
25 | Cc1nnc(N[C@H](C)c2cccc(C(F)(F)C(C)(C)O)c2)c2cc3c(cc12)C1(CCCC1)C(=O)N3C [Compound 188, 1′,5′-dimethyl-8′-[[(1R)-1-[3-(1,1-difluoro-2-hydroxy-2-methyl-propyl)phenyl]ethyl]amino]spiro [cyclopentane-1,3′-pyrrolo[2,3-g]phthalazine]-2′-one] | 9.33 nM
26 | Cc1nnc(N[C@H](C)c2cccc(C(F)(F)CO)c2F)c2cc3c(cc12)C1(CCCC1)C(=O)N3C [Compound 189, 1′,5′-dimethyl-8′-[[(1R)-1-[3-(1,1-difluoro-2-hydroxy-ethyl)-2-fluoro-phenyl]ethyl]amino]spiro[cyclopentane-1,3′-pyrrolo[2,3-g]phthalazine]-2′-one] | 6.76 nM
